Experiments:
[1] = system: cancer cell lines with EZH2 gain-of-function mutations (MCS Cluster A); experiment: Cell proliferation, cell lines sensitive by EZH2 genotype and MCS (cluster A); assay type: cell-based; settings: FIG. 5; cells predicted to be sensitive by EZH2 genotyping and by MCS
Description: (§1) B cell lymphoma cells were cultured using standard cell culture conditions. For example, lymphoma cells were cultured in RPMI-1640 (Invitrogen, cat #11875, Grand Island, N.Y.) supplemented with 15% FBS (Invitrogen, cat #10099-141, Grand Island, N.Y.) in humidified incubator at 37° C., 5% CO2. To assess the effect of EZH2 inhibitor on cell proliferation, exponentially growing cells were seeded at a density of 1×10^5 cells/ml in 12-well plate (Corning, cat #CLS3513 Tewksbury, Mass.). Compounds were added after cell seeding at the indicated final concentration, and viable cell number was determined every 3-4 days continuously during the course of experiment using Vi-CELL (Beckman Coulter, Brea, Calif.). On days of cell counting, fresh growth media and compound were replenished and cells split back to a density of 1×10^5 cells/ml. Total cell number and population doubling was then calculated.

[2] = system: cells carrying EZH2 gain of function mutation, not in cluster A (low levels of H3K27me3); experiment: Cell proliferation, EZH2 gain of function cells not in cluster A; assay type: cell-based; settings: FIG. 6, cells predicted sensitive by genotyping, insensitive by MCS
Description: as §1

wild type EZH2 = wild type EZH2 (Homo sapiens, UniProt Q15910); settings: SAM competitive; cited from earlier work
wild type EZH2, sequence (Q15910 whole entry): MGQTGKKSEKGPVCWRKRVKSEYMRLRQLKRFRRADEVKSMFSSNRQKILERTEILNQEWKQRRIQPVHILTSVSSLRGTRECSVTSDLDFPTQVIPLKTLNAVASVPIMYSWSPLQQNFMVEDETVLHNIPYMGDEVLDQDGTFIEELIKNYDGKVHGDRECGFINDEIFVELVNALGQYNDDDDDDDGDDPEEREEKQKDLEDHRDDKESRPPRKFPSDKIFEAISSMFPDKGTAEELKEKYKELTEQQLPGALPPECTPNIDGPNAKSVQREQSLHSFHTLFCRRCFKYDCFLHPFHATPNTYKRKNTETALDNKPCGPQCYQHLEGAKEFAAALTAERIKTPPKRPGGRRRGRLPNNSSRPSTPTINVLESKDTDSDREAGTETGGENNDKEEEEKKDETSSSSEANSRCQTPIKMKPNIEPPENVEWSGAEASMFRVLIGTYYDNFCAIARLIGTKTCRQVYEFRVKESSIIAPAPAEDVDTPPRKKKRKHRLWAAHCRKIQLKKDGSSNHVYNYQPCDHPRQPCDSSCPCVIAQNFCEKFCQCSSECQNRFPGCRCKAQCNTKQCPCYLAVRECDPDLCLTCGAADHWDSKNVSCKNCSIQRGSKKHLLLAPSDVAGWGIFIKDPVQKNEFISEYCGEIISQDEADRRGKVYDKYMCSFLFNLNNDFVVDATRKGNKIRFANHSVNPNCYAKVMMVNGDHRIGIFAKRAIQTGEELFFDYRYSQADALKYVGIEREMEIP
wild type EZH2, sequence (O75530 whole entry partner): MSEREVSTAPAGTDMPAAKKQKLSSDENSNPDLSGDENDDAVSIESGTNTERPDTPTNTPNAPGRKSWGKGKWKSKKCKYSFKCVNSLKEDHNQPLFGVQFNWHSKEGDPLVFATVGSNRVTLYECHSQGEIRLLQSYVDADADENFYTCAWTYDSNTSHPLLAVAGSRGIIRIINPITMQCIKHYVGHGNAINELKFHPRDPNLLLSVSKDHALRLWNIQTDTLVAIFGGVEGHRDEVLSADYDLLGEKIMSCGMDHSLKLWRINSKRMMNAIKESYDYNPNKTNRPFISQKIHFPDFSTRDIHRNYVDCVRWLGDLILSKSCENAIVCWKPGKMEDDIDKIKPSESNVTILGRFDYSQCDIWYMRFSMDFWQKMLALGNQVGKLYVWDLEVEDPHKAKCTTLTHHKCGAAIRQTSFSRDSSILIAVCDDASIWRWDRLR
wild type EZH2, sequence (Q15022 whole entry partner): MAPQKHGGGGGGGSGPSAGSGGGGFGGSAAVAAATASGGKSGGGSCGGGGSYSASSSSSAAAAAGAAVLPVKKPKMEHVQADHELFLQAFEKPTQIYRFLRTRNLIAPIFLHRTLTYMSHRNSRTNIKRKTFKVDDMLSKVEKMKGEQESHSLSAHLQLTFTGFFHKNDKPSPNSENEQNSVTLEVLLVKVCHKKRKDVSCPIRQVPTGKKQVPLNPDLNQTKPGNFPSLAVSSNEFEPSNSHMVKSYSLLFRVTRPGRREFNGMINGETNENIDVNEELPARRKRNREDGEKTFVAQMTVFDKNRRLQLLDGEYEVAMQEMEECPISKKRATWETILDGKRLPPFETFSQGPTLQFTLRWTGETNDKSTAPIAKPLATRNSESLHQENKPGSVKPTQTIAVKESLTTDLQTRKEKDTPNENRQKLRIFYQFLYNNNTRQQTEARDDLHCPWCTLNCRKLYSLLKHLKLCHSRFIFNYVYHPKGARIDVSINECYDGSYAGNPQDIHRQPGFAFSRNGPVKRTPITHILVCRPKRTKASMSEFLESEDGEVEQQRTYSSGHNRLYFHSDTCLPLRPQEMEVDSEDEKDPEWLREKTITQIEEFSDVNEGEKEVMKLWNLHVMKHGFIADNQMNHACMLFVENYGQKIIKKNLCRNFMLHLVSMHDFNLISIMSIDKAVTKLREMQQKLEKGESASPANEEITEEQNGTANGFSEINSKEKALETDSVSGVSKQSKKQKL

Y641F EZH2 = Y641F EZH2 (Homo sapiens, UniProt Q15910, Y641F); settings: SAM competitive; cited from earlier work
Y641F EZH2, sequence (Q15910 whole entry Y641F): as the sequence (Q15910 whole entry) above, with Y641F counted along it
Y641F EZH2, sequence (O75530 whole entry partner): as the sequence (O75530 whole entry partner) above
Y641F EZH2, sequence (Q15022 whole entry partner): as the sequence (Q15022 whole entry partner) above

CCC(CC)n1ccc2c(C(=O)NCc3c(C)cc(C)[nH]c3=O)cc(C#N)cc21 [EI1, 6-cyano-N-((4,6-dimethyl-2-oxo-1,2-dihydropyridin-3-yl)methyl)-1-(pentan-3-yl)-1H-indole-4-carboxamide]
sensitivity of cells to EZH2 inhibitor (cell proliferation) [1]: sensitive | sensitivity of cells to EZH2 inhibitor (cell proliferation) [2]: insensitive | IC50 (wild type EZH2): 9.4 nM | IC50 (Y641F EZH2): 13.2 nM

Source: patent publication US20160091485A1, “MARKERS FOR EZH2 INHIBITORS” (THE BROAD INSTITUTE, INC., priority 2013, published 2016)
